Experimental data as given in patent US12691114B2, “Compositions for inhibition of herpesviruses” (The Medical College of Wisconsin, Inc., priority 2020, dated 2026).
Read-outs that look alike come from different tables or passages of the source.

Legend:
[1] = tested on: HCMV Towne; test: Add-on and removal assays, luciferase at 72 hpi; type: cell-based, human cytomegalovirus; details: for stage of maximal activity during HCMV replication, in words: add-on and removal assays; for add-on assay result, in words: compound added at times after infection; for add-on assay result, in words / removal assay result, in words: luciferase 72 hpi; for removal assay result, in words: compound removed at times after infection
Experimental: Add-on and removal assays: These assays were performed to identify at which stage during HCMV replication the compounds had maximal activity. In the add-on group, compounds were added to infected HFFs at 0, 6, 24, and 48 hpi, and luciferase activity was measured at 72 hpi. In the removal group, compounds were added immediately after virus infection and were subsequently removed after 0, 6, 24, and 48 h; luciferase was measured at 72 hpi.
Timing of HCMV inhibition: Add-on and removal assays were performed. Compounds were added or removed at 0, 6, 12, 24, 36 and 48 hpi, and luciferase activity was measured at 72 hpi.

[2] = tested on: HCMV TB40; test: Plaque reduction assay, HCMV TB40 in HFFs; type: cell-based, human cytomegalovirus; details: 10 days
Experimental: (§1) Plaque reduction assay: HFFs were seeded into 12-well plates (2×10^5 cells/well) and infected with HCMV TB40 at approximately 100 plaques/well. After 90 min, media were aspirated, and DMEM containing 0.5% carboxymethyl-cellulose (CMC), 4% fetal bovine serum (FBS), and drugs were added into duplicate wells. Following incubation at 37° C. for 10-12 days the overlay was removed, and plaques were counted after crystal violet staining. For HSV1 and HSV2 replication in Vero cells, the adsorption time was 60 min and plaques were counted after 36 h. Plaque assays in MEFs were completed after 3 days.
Viral protein expression was measured by Western blot.

[3] = tested on: GCV-resistant HCMV Towne (C607Y mutation in UL97); test: microbe, parasite or virus in culture; type: cell-based, human cytomegalovirus
Source text: (§2) A GCV-resistant HCMV pp28-luciferase that contains a C607Y mutation in UL97 was reported^37. The HCMV TB40 strain was obtained from ATCC (VR-1578). Clinical isolates of Human Herpesvirus 1 and 2 (HSV1, HSV2) were collected from the Johns Hopkins Microbiology laboratory without identifiers that could link them to a specific patient. Mouse CMV (MCMV) Smith strain (ATCC VR-1399) was used for infection of MEFs.
(§3) Luciferase activity: Cell lysates were collected at 72 hpi and luciferase activity was determined using the Glomax-Multi+Detection System (Promega, Madison, WI) as described previously^20.
(§4) HCMV inhibition was measured by luciferase activity of pp28-recombinant Towne and pp28 GCV-resistant Towne strains of HCMV (72 hpi) and by plaque reduction using HCMV Towne or TB40 (10 days). Viral protein expression was measured by Western blot.

[4] = tested on: HCMV TB40; test: Drug combination with letermovir, plaque assay TB40, Bliss model; type: cell-based, human cytomegalovirus; details: read-out: EC50 (μM) of Compound 2
Experimental: Drug combination and analysis: These experiments were performed as previously reported^40. The combination of GCV and each compound was tested using the pp28-luciferase. Briefly, 2×10^6 HFFs/plate were seeded in 96-well plates and infected with the pp28-luciferase Towne HCMV strain (MOI=1). First, a dose response curve was generated for each drug individually to determine its EC50. Then, drugs were combined at twice their EC50, diluted in DMEM with 4% FBS, followed by serial dilution and added together after infection. Luciferase activity of the combination and each drug individually was quantified at 72 hpi. The combination of letermovir and each of the new compounds was tested by the plaque assay using TB40. The same principle applied in this assay for the drug combination effect, and plaques were counted at 8 dpi. The Bliss model was used to calculate the effect of each drug combination on pp28-luciferase activity and plaque reduction. In this model, drug combination represents the product of two probabilistically independent events as described in the following equation^41.
[formula] Where D is the drug concentration, m is the slope, and EC50 is the effective concentration resulting in 50% virus inhibition. The combined effect of two inhibitors (Fu, fractional unaffected) is computed as the product of individual effects of the two inhibitors, Fu1 and Fu2. If the ratio of observed fold inhibition divided by the expected fold inhibition is greater than 1, the compounds are synergistic. If the ratio is less than 1, the combination is considered antagonistic, and if it equals to 1 the combination is additive.
Pattern of drug combination with GCV and letermovir: The effect of each compound alone or in combination with GCV or letermovir was tested in HCMV-infected HFFs. […] A ratio of observed fold inhibition divided by the expected fold inhibition of >1 was considered drug synergy, <1 as drug antagonism, and =1 as additive. For letermovir and its combination with each of the five compounds the EC50 was determined based on plaque assay. The combination of GCV and 2955 was also tested by plaque assay. All other combinations and Bliss coefficients were measured by pp28- luciferase.

[5] = tested on: HSV1 clinical isolate; test: Plaque reduction assay, HSV1 in Vero cells; type: cell-based, Human Herpesvirus 1; details: plaque reduction
Source text: as §2, with “Viruses and antiviral assays: A recombinant pp28-luciferase Towne HCMV strain expressing luciferase under the control of the UL99 (pp28) late promoter was reported to provide a highly-sensitive and reproducible reporter for drug screening^20. A GCV-resistant” for “A GCV-resistant”
as §1
(§5) Inhibition of other herpesviruses: Inhibition of herpes simplex 1 and 2 (HSV1, HSV2), Epstein Barr virus (EBV) and mouse CMV (MCMV) was tested with the five compounds. Plaque reductions assays were used for HSV1, HSV2 and MCMV. Inhibition of lytic EBV replication was measured by real-time PCR in AKATA cells following IgG induction. Only MLS8554 was active against HSV1, HSV2 and MCMV (Table 2).

[6] = tested on: HCMV Towne DNA; test: Viral DNA by US17 real-time PCR in cells and supernatants; type: cell-based, human cytomegalovirus; details: Towne MOI=0.1; NFU1827 5 μM, MLS8554 2 μM, MLS8091 1.5 μM, 2955 3 μM, GCV 5 μM
Source text: DNA isolation and quantitative real-time (qPCR): Total DNA was isolated from non-infected control, and HCMV-infected HFFs using Wizard SV genomic DNA isolation kit (Promega, Madison, WI). To determine viral load in the supernatant, total DNA was isolated from supernatants using automated DNA extraction on the BioRobot M48 instrument (Qiagen, Valencia, CA). A US17 real-time PCR assay which targets 151-bp from the highly conserved US17 region of the CMV genome was used^39. The primers and probe for US17 are: […]

[7] = molecular target: HCMV Towne (pp28-luciferase); test: pp28-luciferase HCMV Towne assay in HFFs, luciferase activity at 72 hpi; type: cell-based, human cytomegalovirus
Source text: as §2, §3, §4

[8] = tested on: Mouse CMV (MCMV) Smith strain; test: Plaque assay, mouse CMV in MEFs; type: cell-based, mouse cytomegalovirus; details: plaque reduction; for EC50: MEFs, NA = Not active
Source text: as §2, with “Viruses and antiviral assays: A recombinant pp28-luciferase Towne HCMV strain expressing luciferase under the control of the UL99 (pp28) late promoter was reported to provide a highly-sensitive and reproducible reporter for drug screening^20. A GCV-resistant” for “A GCV-resistant”
as §1, §5

[9] = pp28 GCV-resistant Towne, luciferase, 72 hpi, read-out: EC50—GCVR Towne
[10] = combination experiment with Letermovir
[11] = pp28-luciferase Towne, HFFs, 72 hpi, read-out: EC50—Towne
[12] = Human betaherpesvirus 5, combination experiment with Letermovir
[13] = Human betaherpesvirus 5, read-out: EC50—Towne (μM)

SMILES	stage of maximal activity during HCMV replication, in words [1]	add-on assay result, in words [1]	removal assay result, in words [1]	EC50 [2] [nM]	EC50 [3, 9] [µM]	EC50 [4, 10] [µM]	activity against HSV1, in words [5]	viral DNA replication in cells, in words [6]	viral DNA yield in supernatant, in words [6]	EC50 [7, 11] [µM]	activity against MCMV, in words [8]	activity against GCV-resistant HCMV, in words [3]	EC50 ([2]; Human betaherpesvirus 5, 240 h) [nM]	EC50 [4, 12] [µM]	EC50 [7, 13] [µM]	other results
Nc1c(S(=O)(=O)c2cccs2)c2nc3ccccc3nc2n1Cc1ccccc1 [MLS8091]	early-late stage	overlapped with that of GCV	showed earlier effects	330	0.26 ± 0.02	0.13 ± 0.05	no activity	higher than that achieved with GCV	not significantly different from GCV	0.39	no activity	–	–	–	–	–
CCc1ccc(NC(=O)[C@H](Cc2c[nH]c3ccccc23)NC(=O)[C@@H]2Cc3ccccc3CN2)cc1 [MLS8554]	immediate early-early	activity was significantly reduced	near complete	340	0.17	0.14 ± 0.02	active	reduced	reduced	0.64 ± 0.1	active	active	–	–	–	EC50 ([5]; Vero cells, NA = Not active, read-out: EC50—HSV1-C1): 1780 ± 200 nM; anti-HCMV activity, in words ([7]; all the HCMV strains used): active; EC50 [8]: 11700 ± 2000 nM
CC(C)NC(=O)C1CCN(C(=O)c2cc3sccc3n2Cc2ccc(Cl)cc2)CC1 [NCGC2955, 1-(4-(4-chlorobenzyl)-4H-thieno[3,2-b]pyrrole-5-carbonyl)-N-isopropylpiperidine-4-carboxamide]	early-late stage	overlapped with GCV	longer activity than GCV	–	–	–	–	modest	modest	–	–	inhibited	1180 ± 200	3.19 ± 0.17	4.61 ± 1.4	inhibition of luciferase activity, in words ([7]; compound after infection, MOI of 1 PFU/cell, 72 hpi): did not show a full dose response; EC50 ([8]; Murid betaherpesvirus 1): 1000 nM
CCN1CCN(CCCNC(=O)c2ccc3c(c2)sc2nc(-c4ccc(OC)cc4)cn23)CC1 [NFU1827, N-[3-(4-ethylpiperazin-1-yl)propyl]-4-(4-methoxyphenyl)-7-thia-2,5-diazatricyclo [6.4.0.02,6] dodeca-1(8),3,5,9,11-pentaene-10-carboxamide]	immediate early-early	lost its ability to inhibit HCMV	significant HCMV suppression	–	–	–	no activity	significantly reduced	significantly reduced	–	no activity	–	1210 ± 100	0.69 ± 0.07	0.85 ± 0.1	EC50 ([3]; Human betaherpesvirus 5, read-out: EC50—GCVR Towne (μM)): 0.84 ± 0.1 µM
